Data published in PMC7714403 (JCI Insight, 2020).

Experiments:
[1] = system: phospho-FLT3 and phospho-STAT5 in Ba/F3-FLT3-ITD/F691L cells; experiment: Western blot, signaling inhibition; type: cell-based, mouse; details: increasing concentrations, 1 hour
Protocol: MOM13 cells were serum starved (RPMI plus 0.5% FBS) for 18–24 hours prior to start of drug treatment. For other cells, they were not serum starved. Drug treatments were carried out for 1 or 4 hours, at which time cells were lysed with Cell Lysis buffer (CST) or RIPA buffer (CST) supplemented with protease and phosphatase inhibitors. […] Western blots were developed with either Signal Fire ECL reagent (CST) or SuperSignal West Femto Maximum Sensitivity Substrate (Invitrogen) using Film or Odyssey FC Imaging System (LI-COR Biosciences). Western blots were repeated in 2–3 biological replicate experiments.

[2] = molecular target: p38b (Homo sapiens, UniProt Q15759); experiment: KiNativ, OCI cells live cell; type: cell-based; details: 2 h, labeling site Other, peptide […]
Chain of p38b (Q15759 whole entry): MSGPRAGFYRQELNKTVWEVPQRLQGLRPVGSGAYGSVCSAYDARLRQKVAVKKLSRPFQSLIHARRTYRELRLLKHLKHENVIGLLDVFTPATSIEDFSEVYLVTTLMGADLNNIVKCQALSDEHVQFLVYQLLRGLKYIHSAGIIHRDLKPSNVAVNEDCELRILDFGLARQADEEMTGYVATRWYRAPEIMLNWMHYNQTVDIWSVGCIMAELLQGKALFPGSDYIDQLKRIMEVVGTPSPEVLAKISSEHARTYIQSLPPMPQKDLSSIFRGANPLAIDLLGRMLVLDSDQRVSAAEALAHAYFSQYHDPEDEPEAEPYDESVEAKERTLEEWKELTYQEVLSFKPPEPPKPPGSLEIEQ

[3] = molecular target: CSK (Homo sapiens, UniProt P41240); experiment: KiNativ, OCI cells live cell; type: cell-based
Chain of CSK (P41240 whole entry): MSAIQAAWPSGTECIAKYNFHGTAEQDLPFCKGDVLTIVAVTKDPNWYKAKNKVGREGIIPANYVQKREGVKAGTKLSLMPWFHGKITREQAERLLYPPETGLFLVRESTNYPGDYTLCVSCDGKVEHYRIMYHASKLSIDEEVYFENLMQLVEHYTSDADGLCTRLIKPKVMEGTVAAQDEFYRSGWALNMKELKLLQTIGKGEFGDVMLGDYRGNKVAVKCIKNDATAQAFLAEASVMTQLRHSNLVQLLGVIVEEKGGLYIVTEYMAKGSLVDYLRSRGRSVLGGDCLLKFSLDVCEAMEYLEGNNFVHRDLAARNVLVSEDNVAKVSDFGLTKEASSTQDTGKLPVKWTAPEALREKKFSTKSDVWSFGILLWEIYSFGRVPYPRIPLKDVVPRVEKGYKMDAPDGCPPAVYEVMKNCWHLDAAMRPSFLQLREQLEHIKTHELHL

[4] = system: ZC1/HGK, ZC2/TNIK, ZC3/MINK; experiment: KiNativ, OCI cells live cell; type: cell-based, human; details: labeling site Lys2, peptide DIKGQNVLLTENAEVK
[5] = molecular target: CHK2 (Homo sapiens, UniProt O96017); experiment: KiNativ, OCI cells live cell; type: cell-based; details: 2 h
Chain of CHK2 (O96017 whole entry): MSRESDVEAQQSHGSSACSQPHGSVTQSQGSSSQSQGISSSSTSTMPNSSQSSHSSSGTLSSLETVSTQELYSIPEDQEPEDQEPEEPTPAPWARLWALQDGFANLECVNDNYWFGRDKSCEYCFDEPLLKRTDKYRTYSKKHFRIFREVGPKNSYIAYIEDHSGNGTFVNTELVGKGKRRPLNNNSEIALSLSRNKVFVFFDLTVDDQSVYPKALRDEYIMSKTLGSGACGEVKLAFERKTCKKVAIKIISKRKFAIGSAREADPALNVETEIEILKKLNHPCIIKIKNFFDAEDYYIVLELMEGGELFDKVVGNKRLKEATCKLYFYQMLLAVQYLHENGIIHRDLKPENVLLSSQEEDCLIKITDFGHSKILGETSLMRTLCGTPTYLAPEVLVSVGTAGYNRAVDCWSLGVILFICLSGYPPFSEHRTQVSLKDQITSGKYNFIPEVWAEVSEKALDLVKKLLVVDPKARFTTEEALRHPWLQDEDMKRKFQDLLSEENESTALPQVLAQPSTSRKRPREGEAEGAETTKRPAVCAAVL

[6] = system: ABL, ARG; experiment: KiNativ, OCI cells live cell; type: cell-based, human
[7] = molecular target: T1, PLK4 (Homo sapiens, UniProt O00444); experiment: KdELECT binding assay
T1 construct: purchased Eurofins DiscoverX
T1 sequence (O00444 whole entry): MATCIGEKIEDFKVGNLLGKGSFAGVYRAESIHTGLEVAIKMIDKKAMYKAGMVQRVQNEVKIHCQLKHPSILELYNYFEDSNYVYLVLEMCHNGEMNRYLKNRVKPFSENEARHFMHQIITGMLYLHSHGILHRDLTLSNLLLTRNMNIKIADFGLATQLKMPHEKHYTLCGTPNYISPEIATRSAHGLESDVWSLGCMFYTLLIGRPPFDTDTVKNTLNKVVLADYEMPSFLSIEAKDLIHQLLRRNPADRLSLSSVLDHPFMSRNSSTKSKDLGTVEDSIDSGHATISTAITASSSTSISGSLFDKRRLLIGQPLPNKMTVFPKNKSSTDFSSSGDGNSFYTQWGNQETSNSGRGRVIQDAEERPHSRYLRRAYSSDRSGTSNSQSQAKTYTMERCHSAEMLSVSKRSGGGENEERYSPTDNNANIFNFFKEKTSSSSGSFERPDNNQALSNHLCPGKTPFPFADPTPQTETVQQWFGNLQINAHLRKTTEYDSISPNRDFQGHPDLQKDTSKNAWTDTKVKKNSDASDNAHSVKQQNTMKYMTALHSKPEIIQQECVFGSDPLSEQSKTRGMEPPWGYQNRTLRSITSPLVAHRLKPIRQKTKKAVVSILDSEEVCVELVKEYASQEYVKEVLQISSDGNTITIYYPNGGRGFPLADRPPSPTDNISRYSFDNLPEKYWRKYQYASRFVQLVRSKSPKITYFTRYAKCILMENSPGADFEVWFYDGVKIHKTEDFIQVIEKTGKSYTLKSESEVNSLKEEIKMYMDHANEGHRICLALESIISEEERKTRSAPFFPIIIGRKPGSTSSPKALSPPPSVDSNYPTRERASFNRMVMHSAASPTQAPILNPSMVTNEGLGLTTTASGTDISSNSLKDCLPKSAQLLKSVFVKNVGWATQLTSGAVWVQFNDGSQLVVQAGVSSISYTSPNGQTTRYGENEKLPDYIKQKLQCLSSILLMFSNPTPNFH

[8] = system: MOLM13-Luc+ cells; experiment: MOLM13-Luc+ xenograft model; type: in vivo, NSG mice; details: 3 weeks
Protocol: Engraftment and growth of leukemic cells were monitored by noninvasive bioluminescence imaging in cell line xenograft models, as previously done ([47]). Details on the cell engraftment and dosing in mouse models are provided in the Supplemental Methods.
Cell viability of primary samples
HS5-GFP human bone marrow stromal cells were plated and cultured for 72 hours to near confluence.
MOLM13 cells were then seeded onto HS5-GFP cells to establish a co-culture. Twenty-four hours later, cells were treated with increasing concentrations of drug for an additional 72 hours. MOLM13 and HS5-GFP cells were then separated and MTT assay s were performed for cell viability assessment of each cell population.
For murine or human primary AML cells, 100,000 cells/well were plated in a 96-well plate and treated with increasing concentrations of drug. Cell viability, via trypan blue, was measured every 24 hours. If the viability fell below 50% or at 72 hours of treatment, whichever came earlier, cell viability of each plate was measured via CellTiter-Glo. Primary human AML cells were obtained from the OSUCCC Leukemia Tissue Bank Shared […]
Primary AML samples were analyzed by targeted gene sequencing of 80 genes, as previously described (1). Samples were pooled and analyzed on a MiSeq system using the Illuminia MiSeq Reagent Kit v3. […]
Luc+ or MOLM13-Res -Luc+ cells, 0.5 million OCI-AML3 -Luc+ cells, and 10,000 Ba/F3-FLT3-ITD/F691L-GFP+ cells. Weekly tumor engraftment of cell line xenograft models were assessed after injection of D-luciferin (150mg/kg i.p.; Gold Biotechnology, Inc, St. Louis, MO) on Xenogen IVIS-200 imaging system (Perkin Elmer, Waltham, MA) or GFP monitoring by peripheral blood via BD LSR II flow cytometer (BD Biosciences, San Jose, CA). Signal intensity was analyzed using Living Image Software (PerkinElmer) or FlowJo v10.0.08 software (FlowJo, LLC, Ashland, OR). […]
At indicated time points, cells were collected and washed with PBS. CD11b expression was measured using anti-CD11b -APC antibody (BioLegend, San Diego, CA). […]

[9] = molecular target: NDR2 (Homo sapiens, UniProt Q9Y2H1); experiment: KiNativ, OCI cells live cell; type: cell-based; details: 2 h
Chain of NDR2 (Q9Y2H1 whole entry): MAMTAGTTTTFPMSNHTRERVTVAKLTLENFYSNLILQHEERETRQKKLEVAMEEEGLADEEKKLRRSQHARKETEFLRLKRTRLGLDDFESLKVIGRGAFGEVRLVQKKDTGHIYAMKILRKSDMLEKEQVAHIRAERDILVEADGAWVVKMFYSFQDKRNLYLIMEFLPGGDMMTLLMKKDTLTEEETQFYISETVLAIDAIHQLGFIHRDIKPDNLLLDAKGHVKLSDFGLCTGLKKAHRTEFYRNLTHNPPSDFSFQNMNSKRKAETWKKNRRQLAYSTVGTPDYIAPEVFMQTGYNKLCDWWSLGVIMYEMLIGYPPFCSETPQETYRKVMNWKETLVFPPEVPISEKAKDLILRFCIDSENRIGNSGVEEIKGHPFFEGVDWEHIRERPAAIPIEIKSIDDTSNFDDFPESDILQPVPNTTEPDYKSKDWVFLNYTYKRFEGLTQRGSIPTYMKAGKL

CN1CCN(Cc2ccc(Nc3ncc(Cl)c(Nc4ccccc4S(=O)(=O)N(C)C)n3)cc2)CC1 [TP-0903]
phospho-FLT3 and phospho-STAT5 by immunoblot [1]: inhibition | inhibition at 0.1 µM [2]: -9.9% | Inhibition ([3]; labeling site Activation Loop, peptide VSDFGLTKEASSTQDTGKLPVK): 11.9% | Inhibition ([3]; labeling site Lys1, peptide VAVKCIK): 0.379% | Inhibition [4]: -42.0% | inhibition at 0.1 µM ([5]; labeling site Lys1, peptide VAIKIISK): 37.7% | inhibition at 0.1 µM ([5]; labeling site Lys2, peptide DLKPENVLLSSQEEDCLIK): 37.1% | Inhibition ([6]; labeling site Activation Loop, peptide LMTGDTYTAHAGAKFPIK): 37.3% | Inhibition ([6]; labeling site Lys1, peptide YSLTVAVKTLKEDTMEVEEFLK): 40.1% | Kd [7]: < 5 nM | Survival prolonged compared with vehicle ([8]; 60 mg/kg 5 days a week): 13 days | Survival prolonged compared with vehicle ([8]; 60 mg/kg once daily continuously): 17 days | Leukemia outgrowth (bioluminescence) ([8]; 60 mg/kg): suppressed leukemia outgrowth | inhibition at 0.1 µM ([9]; labeling site Lys1, peptide DTGHIYAMKILR): 21.5% | inhibition at 0.1 µM ([9]; labeling site Lys2, peptide DIKPDNLLLDAK): -7%
